Results taken from patent US8834848B2, “Flow and volume regulated inhalation for treatment of severe oral corticosteroid-dependent asthma” (Activaero GmbH Research & Development, priority 2009, dated 2014).

Experiments:
[1] = Clinical trial: budesonide serum concentration analysis; assay type: in vivo, human; settings: baseline to week 18; roughly 12 hours dosing interval
Procedure: For budesonide serum concentration analysis, blood was drawn in all four investigated groups either before inhalation or 30-60 minutes following inhalation at baseline (post-inhalation) and at week 18 (pre- and post-inhalation). Results are seen in FIG. 10.

[2] = human, in vivo
Procedure: Thus the flow-controlled, slow inhalation at about 200 ml/sec enables maximum drug deposition in the target area of small airways. As further seen in FIG. 12, such inhalation method leads to an alveolar drug deposition of 40 to 50%. In contrast, alveolar deposition is below 10% when using a high inspiratory flow rate of 1000 ml/sec and a small inhalation volume of 350 ml, and it is 20-30% when using an inspiratory flow rate of 1000 ml/sec and an inhalation volume of 1800 ml. It is thus preferred to combine the controlled, slow flow rate of e.g. 200 ml/sec with higher inhalation volumes. As mentioned above, said inhalation volumes depend on the individual patient's lung function and the severity grade of the pulmonary disease, but in cooperation between physician and patient, a volume as high as is well tolerable for the patient can be chosen (see also Table 7).

[3] = test system: oral steroid-dependent asthma subjects; settings: nominal 4-8 mg daily, conventional nebulizer; cited from earlier work
[4] = after IV or inhalation administration; cited from earlier work
[5] = test system: healthy volunteers; settings: inhalation; cited from earlier work
[6] = test system: patients with chronic oral dependent asthma; settings: cited from earlier work
[7] = test system: patients with severe chronic asthma; settings: 500 or 1000 μg twice daily; cited from earlier work
[8] = test system: asthmatic children; settings: 50 or 100 μg twice a day via dry powder inhaler; cited from earlier work
[9] = test system: chronic asthma; settings: at half the daily dose of beclomethasone or budenoside; cited from earlier work
[10] = test system: asthma patients; settings: cited from earlier work
[11] = test system: asthma in adults and children; settings: 2000 μg once a day, AKITA protocol; cited from earlier work
[12] = test system: children with acute exacerbated asthma; settings: nebulized; cited from earlier work

Row | Structure (SMILES) | accumulation of budesonide in serum [1] | alveolar drug deposition [2] | subjects with side effects like oral thrush or disturbing sore throat [3] | elimination half-life [4] | relative lung dose, large volume (750 ml) spacer versus nebulizer [5] | patients who discontinued the treatment ([6]; 4000 μg/day nebulized) | reduction in the need for orally administered prednisone, 4000 μg versus 1000 μg per day ([6]; nebulized, bid) | adverse effects [7] | oral corticosteroid-sparing effect [7] | patients reporting adverse effects [8] | adverse side effects [9] | effect on FEV1 [9] | reduction of need for oral prednisolone ([10]; 2000 μg per day versus 1500 or 1000 μg/day) | hoarseness and oral candidiasis ([10]; higher doses) | FEV1 improvement [11] | amount of administered dose that reached the central portion of the lungs (estimated) [11] | reduction in oral steroid use [11] | efficacy compared to oral prednisolone [12]
1 | CCCC1O[C@@H]2C[C@H]3[C@@H]4CCC5=CC(=O)C=C[C@]5(C)[C@H]4[C@@H](O)C[C@]3(C)[C@]2(C(=O)CO)O1 (stereo partly drawn) [budesonide] | did not accumulate in serum | 40-50% | 11% | 2.2 to 4.5 h |  |  |  |  |  |  |  |  |  |  |  |  |  | 
2 | CCC(=O)O[C@]1(C(=O)SCF)[C@H](C)C[C@H]2[C@@H]3C[C@H](F)C4=CC(=O)C=C[C@]4(C)[C@@]3(F)[C@@H](O)C[C@@]21C [fluticasone propionate] |  |  |  |  | sevenfold | 37% | significantly greater | topical adverse effects associated with inhaled corticosteroids were observed | eliminated a need for oral prednisone | 51% | higher risk of pharyngitis and other adverse side effects | improvement of forced expiratory volume in the first second (FEV1) | more likely to reduce a need for oral prednisolone | significantly greater | 17.1% | 500 to 700 µg | 33.2% | at least as effective as oral prednisolone
